Earlier results in publication PMC3019532 (Current radiopharmaceuticals, 2010).

Key:
[1] = rat, in vivo; cited from earlier work
[2] = system: CA20948 rat pancreatic tumor cells; details: 1 h of incubation with 1 × 10^5 CA20948 cells; cited from earlier work

In the case of “[^177Lu-DOTA^0,Tyr^3]octreotate [[^177Lu]DOTA-TATE]”, the “metabolism, form present in urine” value [1] is listed as “predominantly intact form” and the dose internalized [2] is listed as “about 0.03%”.
